Results published in ChEMBL document CHEMBL2074472, “In vitro and in vivo reversal of cancer cell multidrug resistance by the semi-synthetic antibiotic tiamulin” (Biochem Pharmacol, 1998).

How the values were obtained:
Assay type in all cases: functional, cell-based
[1] = target: ATP-dependent translocase ABCB1 (Homo sapiens, UniProt P08183); test: TP_TRANSPORTER: increase in Daunomycin intracellular accumulation (Daunomycin: 1.9 uM, Tiamulin: 2 uM) in CEM/VLB3.6 cells, flow cytometry; details: cem/vlb3.6, 2 µM
Chain of ATP-dependent translocase ABCB1 (Homo sapiens, UniProt P08183) (P08183 whole entry): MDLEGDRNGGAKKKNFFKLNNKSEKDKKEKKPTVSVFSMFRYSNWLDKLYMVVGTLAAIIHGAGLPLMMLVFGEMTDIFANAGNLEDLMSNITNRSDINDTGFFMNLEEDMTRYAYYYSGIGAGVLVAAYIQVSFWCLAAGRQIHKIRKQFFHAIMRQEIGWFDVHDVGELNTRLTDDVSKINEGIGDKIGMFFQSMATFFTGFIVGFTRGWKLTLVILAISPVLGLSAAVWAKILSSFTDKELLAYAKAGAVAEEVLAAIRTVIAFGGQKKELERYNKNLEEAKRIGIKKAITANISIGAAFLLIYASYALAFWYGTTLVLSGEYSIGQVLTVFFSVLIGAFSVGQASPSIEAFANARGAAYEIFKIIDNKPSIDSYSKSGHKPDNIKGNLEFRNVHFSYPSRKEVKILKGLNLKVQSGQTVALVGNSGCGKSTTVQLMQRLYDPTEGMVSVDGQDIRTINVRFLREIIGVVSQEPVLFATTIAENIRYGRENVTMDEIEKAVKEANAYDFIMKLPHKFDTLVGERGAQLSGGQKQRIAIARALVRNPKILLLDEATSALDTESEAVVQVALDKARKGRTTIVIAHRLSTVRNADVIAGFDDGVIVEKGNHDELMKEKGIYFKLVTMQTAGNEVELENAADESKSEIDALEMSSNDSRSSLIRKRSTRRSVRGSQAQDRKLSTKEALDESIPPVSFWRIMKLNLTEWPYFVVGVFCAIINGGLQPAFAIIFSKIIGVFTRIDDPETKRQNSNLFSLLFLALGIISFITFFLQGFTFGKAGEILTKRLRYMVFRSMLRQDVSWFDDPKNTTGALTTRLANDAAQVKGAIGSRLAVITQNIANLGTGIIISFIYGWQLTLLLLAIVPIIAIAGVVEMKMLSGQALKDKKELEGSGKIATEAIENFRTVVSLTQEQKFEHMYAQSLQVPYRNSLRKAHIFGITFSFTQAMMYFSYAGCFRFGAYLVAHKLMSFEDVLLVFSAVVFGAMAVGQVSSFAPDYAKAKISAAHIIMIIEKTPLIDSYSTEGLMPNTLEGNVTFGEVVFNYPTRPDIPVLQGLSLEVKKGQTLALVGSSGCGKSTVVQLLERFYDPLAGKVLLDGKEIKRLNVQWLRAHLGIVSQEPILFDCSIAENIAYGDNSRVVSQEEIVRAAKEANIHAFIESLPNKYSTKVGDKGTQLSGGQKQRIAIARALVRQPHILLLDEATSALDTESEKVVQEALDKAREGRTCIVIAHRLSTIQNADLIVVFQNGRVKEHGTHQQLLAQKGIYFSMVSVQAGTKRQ

[2] = target: ATP-dependent translocase ABCB1 (Mus musculus, UniProt P21447); test: TP_TRANSPORTER: increase in Daunomycin intracellular accumulation (Daunomycin: 1.9 uM, Tiamulin: 2 uM) in P388/ADR25 cells, flow cytometry; details: p388/adr25, 2 µM
Chain of ATP-dependent translocase ABCB1 (Mus musculus, UniProt P21447) (P21447 whole entry): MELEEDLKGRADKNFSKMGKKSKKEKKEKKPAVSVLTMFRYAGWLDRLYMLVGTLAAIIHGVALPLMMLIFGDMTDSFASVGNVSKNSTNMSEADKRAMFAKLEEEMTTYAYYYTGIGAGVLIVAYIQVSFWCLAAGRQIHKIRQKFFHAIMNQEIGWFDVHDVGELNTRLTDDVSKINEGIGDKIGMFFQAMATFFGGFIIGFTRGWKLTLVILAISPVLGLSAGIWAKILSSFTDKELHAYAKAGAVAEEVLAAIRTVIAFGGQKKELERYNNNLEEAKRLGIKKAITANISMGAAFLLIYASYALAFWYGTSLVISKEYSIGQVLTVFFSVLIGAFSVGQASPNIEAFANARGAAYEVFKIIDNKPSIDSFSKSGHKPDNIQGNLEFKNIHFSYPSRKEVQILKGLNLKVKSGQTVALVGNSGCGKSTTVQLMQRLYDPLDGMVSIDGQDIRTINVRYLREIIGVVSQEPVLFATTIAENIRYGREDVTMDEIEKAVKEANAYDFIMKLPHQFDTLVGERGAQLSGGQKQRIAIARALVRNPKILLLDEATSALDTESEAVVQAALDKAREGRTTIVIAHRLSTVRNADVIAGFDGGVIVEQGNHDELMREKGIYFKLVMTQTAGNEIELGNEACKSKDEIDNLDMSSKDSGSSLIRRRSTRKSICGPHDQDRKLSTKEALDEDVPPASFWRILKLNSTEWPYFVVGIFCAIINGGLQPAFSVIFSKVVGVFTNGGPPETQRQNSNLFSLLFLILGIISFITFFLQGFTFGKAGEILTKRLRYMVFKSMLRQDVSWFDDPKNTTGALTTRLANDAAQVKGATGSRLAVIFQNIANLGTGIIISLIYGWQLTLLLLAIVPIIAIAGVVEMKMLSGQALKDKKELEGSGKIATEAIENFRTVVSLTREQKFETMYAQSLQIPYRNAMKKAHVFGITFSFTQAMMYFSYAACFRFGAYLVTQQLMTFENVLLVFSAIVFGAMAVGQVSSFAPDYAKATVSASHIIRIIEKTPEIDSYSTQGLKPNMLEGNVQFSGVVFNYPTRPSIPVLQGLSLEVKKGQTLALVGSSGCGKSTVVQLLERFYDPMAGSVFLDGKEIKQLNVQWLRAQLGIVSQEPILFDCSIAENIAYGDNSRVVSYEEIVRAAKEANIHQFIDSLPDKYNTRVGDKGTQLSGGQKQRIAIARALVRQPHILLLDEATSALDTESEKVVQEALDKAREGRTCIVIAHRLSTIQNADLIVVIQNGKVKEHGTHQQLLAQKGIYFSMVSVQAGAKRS

[3] = target: Multidrug resistance protein 1a (Rattus norvegicus) (UniProt Q6PSM0); test: TP_TRANSPORTER: increase in Daunomycin intracellular accumulation (Daunomycin: 1.9 uM, Tiamulin: 2 uM) in AS30-D/COL10 cells, flow cytometry
Chain of Multidrug resistance protein 1a (Rattus norvegicus) (Q6PSM0 as listed by the source): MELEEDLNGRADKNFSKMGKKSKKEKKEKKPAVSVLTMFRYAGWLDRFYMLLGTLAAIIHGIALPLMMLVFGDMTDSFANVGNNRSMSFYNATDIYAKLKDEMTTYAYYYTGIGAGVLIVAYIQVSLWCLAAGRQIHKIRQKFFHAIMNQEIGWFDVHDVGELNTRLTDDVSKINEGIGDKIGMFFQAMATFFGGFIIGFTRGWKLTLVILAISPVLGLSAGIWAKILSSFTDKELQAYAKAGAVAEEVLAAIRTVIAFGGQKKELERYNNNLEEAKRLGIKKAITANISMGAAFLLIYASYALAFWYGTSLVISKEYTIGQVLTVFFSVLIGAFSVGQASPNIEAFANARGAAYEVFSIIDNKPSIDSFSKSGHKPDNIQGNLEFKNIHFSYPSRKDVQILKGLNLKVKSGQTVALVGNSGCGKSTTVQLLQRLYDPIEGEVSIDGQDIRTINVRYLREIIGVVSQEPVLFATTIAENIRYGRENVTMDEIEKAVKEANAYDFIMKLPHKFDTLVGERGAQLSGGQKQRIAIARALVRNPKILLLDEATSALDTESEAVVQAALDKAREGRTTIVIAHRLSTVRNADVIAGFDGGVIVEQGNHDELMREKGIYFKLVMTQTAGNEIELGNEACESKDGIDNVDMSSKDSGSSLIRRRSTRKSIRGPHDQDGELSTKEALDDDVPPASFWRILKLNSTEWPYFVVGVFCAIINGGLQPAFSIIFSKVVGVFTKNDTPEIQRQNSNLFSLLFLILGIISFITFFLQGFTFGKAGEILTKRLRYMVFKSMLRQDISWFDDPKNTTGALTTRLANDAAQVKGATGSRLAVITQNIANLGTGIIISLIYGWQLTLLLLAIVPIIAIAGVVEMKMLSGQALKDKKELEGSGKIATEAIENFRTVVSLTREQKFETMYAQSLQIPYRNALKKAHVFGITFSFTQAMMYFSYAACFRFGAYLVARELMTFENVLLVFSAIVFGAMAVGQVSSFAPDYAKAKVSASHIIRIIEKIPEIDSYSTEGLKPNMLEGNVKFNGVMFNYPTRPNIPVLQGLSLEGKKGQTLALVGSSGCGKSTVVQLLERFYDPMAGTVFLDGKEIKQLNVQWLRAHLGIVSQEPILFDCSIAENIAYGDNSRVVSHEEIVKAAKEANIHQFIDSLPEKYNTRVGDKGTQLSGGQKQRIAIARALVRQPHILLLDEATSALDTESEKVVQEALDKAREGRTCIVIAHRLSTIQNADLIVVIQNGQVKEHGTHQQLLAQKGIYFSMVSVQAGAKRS

Activity [1]: inhibitor [+] | Activity [2]: inhibitor [+] | Activity [3]: inhibitor [+]
Compound: C=C[C@]1(C)C[C@@H](OC(=O)CSCCN(CC)CC)[C@]2(C)[C@H](C)CC[C@]3(CCC(=O)[C@H]32)[C@@H](C)[C@@H]1O [TIAMULIN]
